Active and inactive are the calls of the source.

Experiment [1] concerns the target T1, Heat shock factor protein 1 (Mus musculus, UniProt P38532).
T1 sequence (P38532 whole entry): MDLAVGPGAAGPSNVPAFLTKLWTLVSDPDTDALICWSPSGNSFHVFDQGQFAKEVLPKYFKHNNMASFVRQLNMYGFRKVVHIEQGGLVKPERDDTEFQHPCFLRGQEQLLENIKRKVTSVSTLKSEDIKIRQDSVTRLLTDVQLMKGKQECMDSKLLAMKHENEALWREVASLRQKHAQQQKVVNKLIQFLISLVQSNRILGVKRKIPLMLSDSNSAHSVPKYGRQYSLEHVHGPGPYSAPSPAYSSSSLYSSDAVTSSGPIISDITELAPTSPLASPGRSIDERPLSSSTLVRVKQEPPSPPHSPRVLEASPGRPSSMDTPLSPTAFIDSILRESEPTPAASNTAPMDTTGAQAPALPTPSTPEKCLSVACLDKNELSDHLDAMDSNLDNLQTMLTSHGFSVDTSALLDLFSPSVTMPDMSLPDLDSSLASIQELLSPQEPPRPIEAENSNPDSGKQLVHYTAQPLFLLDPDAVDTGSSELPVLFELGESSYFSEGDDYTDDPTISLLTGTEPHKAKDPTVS
The experiment in a line: decrease of HSF1-responsive luciferase luminescence – cell-based, NIH3T3, dose retest, confirmation (AID 2382).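 Further: NIH3T3 fibroblasts with HSF1-driven luciferase reporter stressed by proteasome inhibitor MG132; luminescence from HSF1-driven luciferase expression after 8 hours of MG132 stress.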 Type of experiment: functional.

The next experiment has as its target T2, CAAX prenyl protease 2 (Saccharomyces cerevisiae S288c, UniProt Q03530).
T2 sequence (Q03530 whole entry): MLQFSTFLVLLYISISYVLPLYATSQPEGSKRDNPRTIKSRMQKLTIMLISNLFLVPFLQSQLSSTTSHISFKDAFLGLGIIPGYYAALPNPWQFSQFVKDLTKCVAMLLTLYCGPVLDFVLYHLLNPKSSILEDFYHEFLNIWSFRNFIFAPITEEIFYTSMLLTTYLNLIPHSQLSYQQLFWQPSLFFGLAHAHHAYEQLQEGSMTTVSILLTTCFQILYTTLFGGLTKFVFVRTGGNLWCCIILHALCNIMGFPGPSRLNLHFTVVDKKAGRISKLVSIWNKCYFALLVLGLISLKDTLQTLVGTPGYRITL
It counts as biochemical.

Experiment [2] can be described thus: toxicity toward cultured mammalian cells – cell-based, plate reader, cherry-pick samples, cytotoxicity control, dose response (AID 504397). It counts as functional.
Experiment [3] has as its target T3, Runt-related transcription factor 1/Core-binding factor subunit beta (Homo sapiens, UniProt Q01196+Q13951). As to the kind of experiment: disruptors of Runt domain/CBFb-SMMHC interaction – biochemical, FRET, Cerulean-Runt, Venus-CBFb-SMMHC, uHTS, […] (AID 1434). Type of experiment: protein assay.
Experiment [4] deals with T3, Runt-related transcription factor 1/Core-binding factor subunit beta. The experiment in a line: Runt domain/CBFb-SMMHC interaction disruptors – biochemical, TR-FRET (AID 1438). Type of experiment: protein assay. Background: Time-resolved FRET reads energy transfer from a long-lived donor to a nearby acceptor.
Experiment [5] is described as follows: NIH-3T3 fibroblast cytotoxicity, dose response, cytotoxicity control, cell-based, fluorescence, Alamar Blue, secondary assay (AID 2327).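 Further: NIH-3T3 mouse fibroblasts cultured with fluconazole at 8 µg/mL.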 It counts as functional. (Alamar Blue is a resazurin reagent that responds to reducing activity.)
Experiment [6] is described as follows: fluconazole-exposed Candida albicans growth modulators – fluorescence, retest, confirmation (AID 2467). Type of experiment: functional, cell-based.
The target of experiment [7] is T4, Mannose-6-phosphate isomerase (Homo sapiens, UniProt P34949).
T4 sequence (P34949 whole entry): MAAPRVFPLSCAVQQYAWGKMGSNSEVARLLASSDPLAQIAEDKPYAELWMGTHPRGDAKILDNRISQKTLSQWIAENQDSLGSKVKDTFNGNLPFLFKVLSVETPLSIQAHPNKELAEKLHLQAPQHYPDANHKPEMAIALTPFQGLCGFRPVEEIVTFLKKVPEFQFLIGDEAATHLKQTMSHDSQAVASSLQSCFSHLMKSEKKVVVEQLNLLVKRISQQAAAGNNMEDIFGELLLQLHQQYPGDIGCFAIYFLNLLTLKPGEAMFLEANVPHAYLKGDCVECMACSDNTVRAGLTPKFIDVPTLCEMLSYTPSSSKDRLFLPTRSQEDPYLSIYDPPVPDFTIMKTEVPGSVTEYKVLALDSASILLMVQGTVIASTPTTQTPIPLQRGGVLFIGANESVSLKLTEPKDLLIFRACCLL
As to the kind of experiment: MPI inhibition at elevated mannose 6-phosphate – biochemical, fluorescence intensity, high mannose 6-phosphate, primary screen (AID 1220).

In experiment [8] the target is T5, Type-1 angiotensin II receptor (Homo sapiens, UniProt P30556).
T5 sequence (P30556 whole entry): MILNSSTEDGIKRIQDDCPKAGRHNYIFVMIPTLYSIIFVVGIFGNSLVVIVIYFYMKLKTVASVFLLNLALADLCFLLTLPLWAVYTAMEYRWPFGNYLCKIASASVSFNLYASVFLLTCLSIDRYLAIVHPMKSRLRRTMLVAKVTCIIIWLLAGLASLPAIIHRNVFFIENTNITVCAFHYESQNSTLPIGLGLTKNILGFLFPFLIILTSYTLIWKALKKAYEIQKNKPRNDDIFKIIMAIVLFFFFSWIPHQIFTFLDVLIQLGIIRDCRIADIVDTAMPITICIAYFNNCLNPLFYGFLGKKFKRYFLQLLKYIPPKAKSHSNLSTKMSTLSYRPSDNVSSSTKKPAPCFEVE
The experiment in a line: agonist activity at AGTR1 – cell-based, uHTS hits, selectivity assay for APJ receptor agonist project, dose response (AID 488865).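 Further: beta-arrestin recruitment to AT1 measured by enzyme fragment complementation luminescence.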 It counts as functional.

Experiment [9] addresses 26S proteasome non-ATPase regulatory subunit 14 (Homo sapiens, UniProt O00487). The experiment in a line: inhibition of proteasome subunit RPN11 – biochemical, fluorescence polarization, uHTS hits, confirmation (AID 602368). Type of experiment: functional. (In fluorescence polarisation assays a small probe gives low polarisation when free and higher when bound to something large.)

In experiment [10] the target is 72 kDa type IV collagenase (Homo sapiens, UniProt P08253). The experiment in a line: Dose Response validation of uHTS RPN11 inhibitor hits using a MMP-2 Fluorescence assay. Type of experiment: functional.
A further experiment deals with Prothrombin (Bos taurus, UniProt P00735). As to the kind of experiment: thrombin protease inhibitors – biochemical, fluorescence polarization, uHTS hits, dose response (AID 602369). Type of experiment: functional.
For experiment [11], the target named is T6, Aryl hydrocarbon receptor (Homo sapiens, UniProt P35869).
T6 sequence (P35869 whole entry): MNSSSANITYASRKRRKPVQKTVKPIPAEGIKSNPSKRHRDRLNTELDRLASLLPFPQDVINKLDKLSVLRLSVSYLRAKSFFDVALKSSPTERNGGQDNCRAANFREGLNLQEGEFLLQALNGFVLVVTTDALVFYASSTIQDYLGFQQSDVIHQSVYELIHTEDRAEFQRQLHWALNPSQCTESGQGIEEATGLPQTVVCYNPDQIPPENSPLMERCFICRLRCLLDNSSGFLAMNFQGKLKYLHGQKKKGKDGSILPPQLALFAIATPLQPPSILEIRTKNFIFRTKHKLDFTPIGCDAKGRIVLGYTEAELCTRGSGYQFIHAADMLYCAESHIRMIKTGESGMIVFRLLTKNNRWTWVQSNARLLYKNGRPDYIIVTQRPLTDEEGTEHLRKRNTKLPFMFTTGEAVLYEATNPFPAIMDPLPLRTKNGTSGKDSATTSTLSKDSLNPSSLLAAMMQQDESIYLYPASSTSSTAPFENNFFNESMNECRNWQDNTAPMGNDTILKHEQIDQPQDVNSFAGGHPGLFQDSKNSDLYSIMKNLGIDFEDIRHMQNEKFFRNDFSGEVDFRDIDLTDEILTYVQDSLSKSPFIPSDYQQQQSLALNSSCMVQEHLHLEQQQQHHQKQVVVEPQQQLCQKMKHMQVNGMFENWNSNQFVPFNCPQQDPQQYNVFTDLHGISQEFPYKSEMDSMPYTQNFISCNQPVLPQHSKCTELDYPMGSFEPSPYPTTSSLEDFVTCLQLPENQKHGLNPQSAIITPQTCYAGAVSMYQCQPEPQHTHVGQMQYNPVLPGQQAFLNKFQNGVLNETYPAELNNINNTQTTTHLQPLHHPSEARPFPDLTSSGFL
As to the kind of experiment: Luminescence-based cell-based high throughput dose response assay for activators of the Aryl Hydrocarbon Receptor (AHR). [Related pubchem assays: 2796 (Primary screen (AHR activators in singlicate)), 2845 (Confirmation screen (AHR activators in triplicate)), 434939 (Counterscreen (PXR activators in triplicate)), 2804 (Summary (AHR activators))]. It counts as ADME.

Experiment [12] deals with Induced myeloid leukemia cell differentiation protein Mcl-1 (Homo sapiens, UniProt Q07820). It counts as functional.
The nature of experiment [13]: Trypanosoma cruzi growth suppression in host cells – NIH3T3 host cells, beta-gal luminescence, confirmation (AID 2044).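 Further: intracellular parasites grown in NIH/3T3 mouse fibroblasts as host cells; luminescent beta-galactosidase reporter signal from transgenic T. cruzi replicating inside host cells; inhibitors lower the luminescence signal.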 Type of experiment: functional, cell-based.
Experiment [14] is described as follows: NIH3T3 cell viability loss – ATP luminescence, mouse fibroblasts, counter-screen, dose response (AID 2010).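 Further: cells exposed to compound for about 90 hours before reading.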 It counts as functional, cell-based.
The next experiment deals with HEK293. As to the kind of experiment: EBV LMP1 TES2 canonical NF-kB signalling blockers – cell-based, HEK293, luciferase, cherry-pick, dose response (AID 588343). Type of experiment: functional. The note with it: Homo sapiens.
The target in the next experiment is T7, Coagulation factor XII (Homo sapiens, UniProt P00748).
T7 sequence (P00748 whole entry): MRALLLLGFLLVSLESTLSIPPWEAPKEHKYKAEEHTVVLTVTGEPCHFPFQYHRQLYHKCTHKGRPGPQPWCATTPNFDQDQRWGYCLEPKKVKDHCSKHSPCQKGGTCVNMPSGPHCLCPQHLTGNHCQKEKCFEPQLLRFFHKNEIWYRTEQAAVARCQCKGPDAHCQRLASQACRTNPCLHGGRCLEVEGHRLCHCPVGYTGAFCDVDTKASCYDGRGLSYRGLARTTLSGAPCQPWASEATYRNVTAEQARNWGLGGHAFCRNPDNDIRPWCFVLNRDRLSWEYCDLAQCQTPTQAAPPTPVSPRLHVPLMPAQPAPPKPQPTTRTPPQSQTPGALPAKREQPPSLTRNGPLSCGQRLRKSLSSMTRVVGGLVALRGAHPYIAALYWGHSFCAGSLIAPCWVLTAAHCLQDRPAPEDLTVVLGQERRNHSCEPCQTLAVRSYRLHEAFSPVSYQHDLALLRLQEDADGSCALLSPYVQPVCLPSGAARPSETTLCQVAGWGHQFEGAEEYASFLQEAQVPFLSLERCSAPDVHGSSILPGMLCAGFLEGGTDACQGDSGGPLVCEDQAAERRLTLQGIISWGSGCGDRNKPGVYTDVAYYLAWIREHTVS
As to the kind of experiment: activated coagulation factor XII inhibitor potency, concentration-effect curve, cell-free (AID 716). It counts as functional.

A further experiment has as its target SUMO-activating enzyme (Homo sapiens, UniProt Q9UBT2). The experiment in a line: blockers of UBC9-mediated SUMO conjugation – biochemical, AlphaScreen, SUMOylation inhibitor project, confirmation (AID 2018). It counts as functional.

T3 sequence (Q01196 whole entry, the tested form may be a part): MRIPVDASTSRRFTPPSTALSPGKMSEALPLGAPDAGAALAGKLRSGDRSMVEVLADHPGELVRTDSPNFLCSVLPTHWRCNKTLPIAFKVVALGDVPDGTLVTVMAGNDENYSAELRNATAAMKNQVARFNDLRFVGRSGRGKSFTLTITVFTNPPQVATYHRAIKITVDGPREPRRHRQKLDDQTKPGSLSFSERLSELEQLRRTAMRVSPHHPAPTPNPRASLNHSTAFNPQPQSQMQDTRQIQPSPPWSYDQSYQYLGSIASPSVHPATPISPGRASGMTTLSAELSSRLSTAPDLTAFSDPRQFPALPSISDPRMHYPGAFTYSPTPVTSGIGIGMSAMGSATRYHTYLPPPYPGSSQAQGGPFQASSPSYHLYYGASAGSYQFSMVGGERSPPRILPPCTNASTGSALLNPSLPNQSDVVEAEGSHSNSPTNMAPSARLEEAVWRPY
T3 sequence (Q13951 whole entry, the tested form may be a part): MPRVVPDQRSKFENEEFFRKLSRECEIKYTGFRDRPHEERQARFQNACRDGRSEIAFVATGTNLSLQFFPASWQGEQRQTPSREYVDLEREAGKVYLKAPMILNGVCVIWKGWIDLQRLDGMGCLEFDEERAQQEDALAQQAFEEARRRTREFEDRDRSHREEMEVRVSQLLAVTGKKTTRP
Induced myeloid leukemia cell differentiation protein Mcl-1, sequence (Q07820 whole entry): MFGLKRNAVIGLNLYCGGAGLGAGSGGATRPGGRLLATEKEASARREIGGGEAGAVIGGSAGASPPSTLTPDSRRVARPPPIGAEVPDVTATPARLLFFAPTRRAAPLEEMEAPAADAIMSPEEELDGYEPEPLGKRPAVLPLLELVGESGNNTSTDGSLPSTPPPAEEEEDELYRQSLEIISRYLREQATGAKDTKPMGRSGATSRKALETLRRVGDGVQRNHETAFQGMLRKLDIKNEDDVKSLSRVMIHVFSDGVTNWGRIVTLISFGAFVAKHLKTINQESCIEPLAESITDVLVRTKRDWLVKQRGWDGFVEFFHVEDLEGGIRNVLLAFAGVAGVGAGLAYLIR
SUMO-activating enzyme, sequence (Q9UBE0 whole entry): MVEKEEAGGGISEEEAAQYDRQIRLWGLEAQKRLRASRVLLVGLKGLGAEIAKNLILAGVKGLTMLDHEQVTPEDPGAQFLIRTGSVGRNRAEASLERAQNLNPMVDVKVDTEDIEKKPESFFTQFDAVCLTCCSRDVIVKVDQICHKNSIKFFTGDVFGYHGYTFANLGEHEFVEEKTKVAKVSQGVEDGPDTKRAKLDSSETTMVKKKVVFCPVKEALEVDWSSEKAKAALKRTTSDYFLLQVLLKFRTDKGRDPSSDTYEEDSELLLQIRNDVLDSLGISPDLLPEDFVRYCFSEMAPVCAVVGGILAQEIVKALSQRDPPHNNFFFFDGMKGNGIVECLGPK
SUMO-activating enzyme, sequence (Q9UBT2 whole entry): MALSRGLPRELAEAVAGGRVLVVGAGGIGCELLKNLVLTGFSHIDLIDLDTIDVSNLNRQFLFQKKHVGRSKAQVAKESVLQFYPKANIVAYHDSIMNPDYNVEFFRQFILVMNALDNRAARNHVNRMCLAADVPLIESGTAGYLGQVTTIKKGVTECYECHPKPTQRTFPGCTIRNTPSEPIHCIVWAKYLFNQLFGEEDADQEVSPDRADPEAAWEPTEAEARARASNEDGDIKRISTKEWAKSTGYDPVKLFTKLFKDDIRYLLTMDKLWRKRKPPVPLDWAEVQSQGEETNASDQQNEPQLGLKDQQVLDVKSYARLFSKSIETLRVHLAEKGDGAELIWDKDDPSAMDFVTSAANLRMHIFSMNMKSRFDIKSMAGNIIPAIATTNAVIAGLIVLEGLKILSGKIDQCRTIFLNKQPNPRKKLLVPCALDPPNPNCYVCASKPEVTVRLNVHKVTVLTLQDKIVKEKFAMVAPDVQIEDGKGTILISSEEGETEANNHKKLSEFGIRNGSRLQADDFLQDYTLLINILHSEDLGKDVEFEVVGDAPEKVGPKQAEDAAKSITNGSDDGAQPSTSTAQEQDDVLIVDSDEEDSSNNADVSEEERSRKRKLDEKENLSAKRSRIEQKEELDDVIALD
26S proteasome non-ATPase regulatory subunit 14, sequence (O00487 whole entry): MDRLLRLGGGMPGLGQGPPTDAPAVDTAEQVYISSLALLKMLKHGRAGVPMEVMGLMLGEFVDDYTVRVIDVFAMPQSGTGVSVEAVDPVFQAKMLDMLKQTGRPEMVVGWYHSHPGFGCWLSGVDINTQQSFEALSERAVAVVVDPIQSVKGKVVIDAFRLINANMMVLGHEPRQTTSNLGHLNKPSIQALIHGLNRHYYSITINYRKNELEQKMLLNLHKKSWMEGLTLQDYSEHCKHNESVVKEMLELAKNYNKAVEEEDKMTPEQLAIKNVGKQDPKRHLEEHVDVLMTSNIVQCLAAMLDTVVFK
72 kDa type IV collagenase, sequence (P08253 whole entry): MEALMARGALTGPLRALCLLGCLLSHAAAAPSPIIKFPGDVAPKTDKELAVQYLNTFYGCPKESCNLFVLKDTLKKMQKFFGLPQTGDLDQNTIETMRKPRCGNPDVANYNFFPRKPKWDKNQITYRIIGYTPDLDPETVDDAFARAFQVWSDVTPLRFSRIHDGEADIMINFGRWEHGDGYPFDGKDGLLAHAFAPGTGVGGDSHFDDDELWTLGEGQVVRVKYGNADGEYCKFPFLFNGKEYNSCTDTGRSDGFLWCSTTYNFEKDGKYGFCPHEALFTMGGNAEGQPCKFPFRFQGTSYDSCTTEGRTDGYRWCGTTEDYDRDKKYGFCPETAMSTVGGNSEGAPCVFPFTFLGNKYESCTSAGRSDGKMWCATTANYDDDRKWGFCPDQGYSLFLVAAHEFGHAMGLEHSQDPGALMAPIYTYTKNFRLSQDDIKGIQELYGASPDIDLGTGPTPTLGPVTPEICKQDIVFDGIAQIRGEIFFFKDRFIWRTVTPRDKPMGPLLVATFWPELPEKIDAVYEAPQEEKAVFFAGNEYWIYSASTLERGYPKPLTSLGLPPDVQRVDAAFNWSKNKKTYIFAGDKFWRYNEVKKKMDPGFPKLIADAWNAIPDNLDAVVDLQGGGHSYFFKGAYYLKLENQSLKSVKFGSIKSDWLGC

Usually EC50 stands for the concentration that produces a half-maximal response. One may read the AC50 as the concentration giving half of the maximal activity seen. As for `CN(C(=O)c1ccc2c(c1)SC1=NS(=O)(=O)CCN12)C(c1ccccc1)c1ccccc1`, in experiment [1], the EC50 is on record as > 195 µM (not active). Further, the results for the AC50 (on CAAX prenyl protease 2; in [2]) were 2.1 µM (active) and 138 µM (active), respectively.
As usually defined, the IC50 is the midpoint of a concentration-inhibition curve. With `O=C(CC1Sc2ccccc2NC1=O)OCc1cc(=O)oc2cc(O)ccc12` (centres undefined), the IC50 in experiment [3] is 2.71 µM (active); in [4], 19.6 µM (active).
Take `Cc1cccc(N2CCc3c2nc2ccc(Br)cc2c3N)c1`: the concentration giving a half-maximal response (EC50) in [5] was 21.4 µM (inconclusive); in [6], 1.67 µM (active). Moreover, in experiment [7], the concentration for half-maximal inhibition (IC50) was > 50 µM (not active). Besides, the AC50 at CAAX prenyl protease 2 is 8.82 µM (active); in experiment [2], 94.9 µM (active).
In the case of `Cc1ccc(S(=O)(=O)Nc2nc(-c3ccccc3)cs2)cc1`, the EC50 in experiment [8] was > 100 µM (inactive).
With `CCCCC1=CC2=CC(=O)C(C)(OC(=O)C3CCCC3)C(=O)C2=CO1` (centres undefined), the EC50 in [8] was > 100 µM (inactive). Moreover, the IC50 in experiment [9] was 7.64 µM (active); in experiment [10] it was > 100 µM (inactive); at Prothrombin, 7.84 µM (active).
Take `COc1cccc2c(=O)c3cccc(N)c3[nH]c12`: the IC50 in [3] is > 100 µM (inactive); in experiment [4], > 100 µM (inactive); in [12], 6.38 µM (not active). Moreover, in [11], the EC50 was > 91.8 µM (not active).
As to `Oc1c(N=NC(S)=Nc2ccccc2F)c2ccccc2n1Cc1ccccc1Cl`, the EC50 in [13] was 1.28 µM (active); in experiment [14], 17.5 µM (active). Besides, the concentration at half-maximal activity (AC50) in experiment [2] is 210 µM (active); with HEK293, 18.7 µM (active).
For `CCc1cc2cc(C(=O)Nc3ccccc3F)sc2s1`, the IC50 on Coagulation factor XII is > 50 µM (inactive).
As for `Cc1ccc(O)c(NC(=O)c2cc3nc4c(c(C(F)(F)F)n3n2)CCc2ccccc2-4)c1`, on SUMO-activating enzyme, the IC50 was 63.7 µM (active).
In the case of `O=C(Nc1nccs1)c1cccc(S(=O)(=O)N2CCCCC2)c1`, the IC50 at Coagulation factor XII is > 50 µM (inactive).
As to `CC(C)CNC(=O)c1c(N)n(Cc2ccco2)c2nc3ccccc3nc12`, the IC50 in experiment [3] is 1.86 µM (active); in experiment [4] it was 11.7 µM (active); in [12], 4.4 µM (not active).

These data come from ChEMBL document CHEMBL1201862, “PubChem BioAssay data set” (2004).
